In ChEMBL document CHEMBL1131697, “Toxicity and osmoprotective activities of analogues of glycine betaine obtained by solid phase organic synthesis towards Sinorhizobium meliloti” (1999):

What was measured:
Format in all cases: functional
Sinorhizobium meliloti [1] = assay: Tested for effect on doubling time of growth of Sinorhizobium meliloti 102F34 in Lactate aspartate(LAS) minimal medium (without addition of NaCl)
[2] = Evaluated for substrate specificity of betaine uptake in salt-stressed Sinorhizobium meliloti. compound to substrate ratio 100:1
[3] = Evaluated for substrate specificity of betaine uptake in salt-stressed Sinorhizobium meliloti. compound to substrate ratio 1:1; parameters: unit not given here
Sinorhizobium meliloti [4] = assay: Maximal attenuance reached in the stationary phase was reported against Sinorhizobium meliloti 102F34 in Lactate aspartate(LAS) minimal medium (without addition of NaCl)
Sinorhizobium meliloti [5] = assay: Tested for effect on doubling time of growth of Sinorhizobium meliloti 102F34 in Lactate aspartate(LAS) minimal medium (with addition of NaCl)
Sinorhizobium meliloti [6] = assay: Maximal attenuance reached in the stationary phase was reported against Sinorhizobium meliloti 102F34 in Lactate aspartate(LAS) minimal medium (with addition of NaCl)
[7] = Evaluated for substrate specificity of betaine uptake in salt-stressed Sinorhizobium meliloti. compound to substrate ratio 10:1

Row | SMILES | DT (Sinorhizobium meliloti [1]) [h] | Substrate specificity of betaine uptake [2] | Ratio [3] | Dmax (Sinorhizobium meliloti [4]) | DT (Sinorhizobium meliloti [5]) [h] | Dmax (Sinorhizobium meliloti [6]) | Betaine uptake (substrate specificity) [7]
1 | CC(C)[N+](C)(C)CC(=O)O.[Cl-] | 6.9 | 45 | 0 | 1.8 | 20 | 0.9 | 4
2 | CCCC[N+](C)(C)CC(=O)O.[Cl-] | 6.4 | 23 | 1 | 1.9 | 20 | 0.9 | 10
3 | C[N+]1(CC(=O)O)CCOCC1.[Cl-] | 28 | 43 | 1 | 1 | 13 | 1.9 | 7
4 | C[S+](C)CC(=O)O.[Cl-] | 35 | 98 | 52 | 0.5 | 32 | 0.5 | 90
5 | CC[N+](C)(C)CC(=O)O.[Cl-] | 35 | 96 | 35 | 0.7 | 11 | 2 | 79
6 | C[N+](C)(C)CC(=O)O [BETAINE] | 5.5 | 99 | 80 | 2 | 7 | 2.1 | 94
7 | CC[N+](C)(CC)CC(=O)O.[Cl-] | 9 | 57 | 4 | 1.6 | 13 | 2 | 10
8 | C[N+]1(CC(=O)O)CCCC1.[Cl-] | 45 | 95 | 20 | 0.6 | 11 | 2.1 | 61
9 | CC[N+](CC)(CC)CC(=O)O.[Cl-] | 7.9 | 27 | 0 | 1.8 | 18 | 0.9 | 4
